From patent publication US20210338555A1, “COMPOSITION AND METHOD OF INHIBITING MINERALOCORTICOID RECEPTOR ACTIVITY BY APPLYING IT TO THE SKIN” (AMOREPACIFIC CORPORATION, priority 2018, published 2021)

System: mineralocorticoid receptor
Assay: MMTV-luciferase reporter assay of mineralocorticoid receptor activity in CV-1 cells
Assay type: cell-based
Settings: 10 μg/ml compound, after 2 hours dexamethasone (1 nM), cultivated 24 hours, FIG. 2
Description: RNA was separated from a CV-1 cell and PCR was performed using reverse transcriptase, so gene expressions of a glucocorticoid receptor (GR) and a mineralocorticoid receptor (MR) were confirmed, and the results are shown in FIG. 1.
The CV-1 cell was cultivated in a 24-well flat incubator. After 24 hours, the incubating medium was replaced with a 10% charcoal dextran-treated FBS-DMEM, and then after 4 hours, a mixing DNA of a MMTV-luciferase reporter plasmid and an internal Control Group of a pRL-SV-40 plasmid was transfected using TRANSFAST™ reagent (Promega). After 24 hours, it was treated with 10 μg/ml of the compound (INDOFINE Chemical Company, Inc.) represented by Chemical Formula 1-1, and after 2 hours, was treated with dexamethasone (1 nM), and then cultivated for 24 hours. The luciferase activity in the cell lysate was measured using a Dual-Luciferase Reporter Assay System (Promega), and the transfection efficiency was normalized by revising Renilla luciferase activity to measure a relative luciferase activity, and the results are shown in FIG. 2.

Structure (SMILES): O=c1c(-c2ccc(O)c(O)c2)coc2cc(O)ccc12 [Chemical Formula 1-1]
- relative luciferase activity (mineralocorticoid receptor activity induced by dexamethasone): deteriorated activity of the mineralocorticoid receptor
